This note sets out measurements from article PMC6445168, “Design, synthesis and antimalarial activity of novel bis{N-[(pyrrolo[1,2-a]quinoxalin-4-yl)benzyl]-3-aminopropyl}amine derivatives” (Journal of Enzyme Inhibition and Medicinal Chemistry, 2017).

SMILES strings stand for the structures. Some results are limits rather than exact numbers.

Broadly, the CC50 is the concentration giving 50% cytotoxicity. A lower CC50 goes with harm at low concentration. For orientation: IC50 means the concentration at which inhibition is half-maximal.

The nature of data set [1]: Cytotoxicity evaluation, MTT assay. To be noted: human, HepG2 cells (hepatocarcinoma cell line, ATCC HB-8065); HepG2, 72 h incubation, mean ± SD of three independent experiments. Format: cell-based, human. On the procedure: These assays were performed toward the human HepG2 cell line (HepG2 CC50). […] These cells express many of the hepatocyte-specific metabolic enzymes, thus enabling the cytotoxicity of tested product metabolites to be evaluated. […] Duplicate assays were performed for each sample. Each plate-well was then microscope-examined for detecting possible precipitate formation before the medium was aspirated from the wells. 100 μL of MTT solution (0.5 mg/mL in medium without FCS) were then added to each well. […] After this time, the MTT solution was removed and DMSO (100 μL) was added to dissolve the resulting blue formazan crystals. Plates were shaken vigorously (300 rpm) for 5 minutes. The absorbance was measured at 570 nm with 630 nm as reference wavelength spectrophotometer using a BIO-TEK ELx808 Absorbance Microplate Reader. DMSO was used as blank and doxorubicin (Sigma Aldrich) as positive control. Cell viability was calculated as percentage of control (cells incubated without compound). The 50% cytotoxic concentration was determined from the dose-response curve by using the TableCurve 2D V5.0 software (Systat Software, San Jose, CA).

For data set [2], the system named is P. falciparum CQ-resistant strain W2. Put plainly: In vitro antiplasmodial activity, SYBR Green I fluorescence-based method, W2 strain. Format: cell-based, Plasmodium falciparum. To be noted: for IC50: Plasmodium falciparum, chloroquine-resistant strain W2, 48 h incubation, read-out: P. falciparum strains IC50 values, W2; for Selectivity Index HepG2/W2: ratio CC50 HepG2 / IC50 W2. On the procedure:
(§1) The in vitro antiplasmodial activities were tested over concentrations ranging from 39 nM to 40 μM against culture-adapted Plasmodium falciparum reference strains 3D7 and W2. […] The parasites were cultivated in RPMI medium (Sigma-Aldrich, Lyon, France) supplemented with 0.5% Albumax I (Life Technologies corporation, Paisley, United Kingdom), hypoxanthine (Sigma-Aldrich), gentamicin (Sigma-Aldrich), and human erythrocytes and were incubated at 37 °C in a candle jar, as described previously. The P. falciparum drug susceptibility test was carried out in 96-well flat bottom sterile plates under a final volume of 250 μL. After a 48 h incubation with the drugs, quantities of DNA in treated and control cultures of parasites in human erythrocytes were compared according to the SYBR Green I (Sigma-Aldrich) fluorescence-based method[38]^,[39]. Briefly, after incubation, plates were frozen at -20 °C until use. They were then left to thaw for 2 h at room temperature and 100 μL of the homogenized culture were transferred to 96-well flat bottom sterile black plates (Nunc Inc) already containing 100 μL of the SYBR Green I lysis buffer (2xSYBR Green, 20 mM Tris base pH 7.5, 5 mM EDTA, 0.008% w/v saponin, 0.08% w/v Triton X-100). […] Plates were incubated for 1 h at room temperature and then read on a fluorescence plate reader (Tecan, Austria) using excitation and emission wavelengths of 485 and 535 nm, respectively.

For data set [3], the system named is L. donovani (MHOM/IN/00/DEVI) promastigotes. Put plainly: In vitro antileishmanial activity on promastigotes, MTT assay. Type of data set: cell-based. The note with it: Leishmania donovani, 72 h incubation, mean ± SD of three independent experiments. On the procedure:
L. donovani (MHOM/IN/00/DEVI) used in this study was provided by the CNR Leishmania (Montpellier, France). The effects of the tested compounds on the growth of L. donovani (MHOM/IN/00/DEVI)promastigotes were assessed by MTT assay[41] .Briefly, promastigotes in log-phase in Schneider′s medium supplemented with 20% fetal calf serum (FCS), 2 mM L-glutamine and antibiotics (100 U/mL penicillin and 100 μg/mL streptomycin), were incubated at an average density of 10^6 parasites/mL in sterile 96-well plates with various concentrations of compounds dissolved in DMSO (final concentration less than 0.5% v/v), in duplicate. Appropriate controls treated by DMSO and pentamidine or amphotericin B (reference drugs purchased from Sigma-Aldrich) were added to each set of experiments. After a 72 h incubation period at 27 °C, parasite metabolic activity was determined. Each plate-well was then microscope-examined for detecting possible precipitate formation. 20 μL of MTT 3–(4,5-dimethylthiazol-2-yl)-2,5-diphenyltetrazolium bromide) solution (5 mg/mL) were added to each well followed by incubation for another 4 h. The enzyme reaction was then stopped by addition of 100 μL of 50% isopropanol – 10% sodium dodecyl sulfate[42] .Plates were shaken vigorously (300 rpm) for 10 minutes and the absorbance measured in a plate reader at 570 nm in a BIO-TEK ELx808 Absorbance Microplate Reader. […] IC50 were calculated by non-linear regression analysis processed on doseresponse curves, using TableCurve 2D V5.0 software. IC50 values represent the mean value calculated from three independent experiments.
In general terms: Formazan colour is commonly taken as a measure of viable cells.

In data set [4] the test system is P. falciparum CQ-sensitive strain 3D7. Description: In vitro antiplasmodial activity, SYBR Green I fluorescence-based method, 3D7 strain. Type of data set: cell-based, Plasmodium falciparum. The note with it: for IC50: Plasmodium falciparum, 3D7, 48 h, chloroquine-sensitive strain 3D7, 48 h incubation, read-out: P. falciparum strains IC50 values, 3D7; for Selectivity Index HepG2/3D7: ratio CC50 HepG2 / IC50 3D7. On the procedure:
as §1

`c1ccc2c(c1)nc(-c1ccc(CNCCCNCCCNCc3ccc(-c4nc5ccccc5n5cccc45)cc3)cc1)c1cccn12` [1a, Bis{N-[4-(pyrrolo[1,2-a]quinoxalin-4-yl)benzyl]-3-aminopropyl}amine] came in with a CC50 at 72 h in data set [1] of 1810 ± 100 nM. The IC50 in data set [2] is 850 ± 150 nM; in data set [3], 1000 ± 200 nM; in data set [4] it was 3420 ± 540 nM. Also, in data set [2], the “Selectivity Index HepG2/W2” value amounted to 2.13. In data set [4], the “Selectivity Index HepG2/3D7” value turned out to be 0.53.

Consider `CN(CCCNCc1ccc(-c2nc3ccccc3n3cccc23)cc1)CCCNCc1ccc(-c2nc3ccccc3n3cccc23)cc1` [1b, Bis{N-[4-(pyrrolo[1,2-a]quinoxalin-4-yl)benzyl]-3-aminopropyl}methylamine], for which, in data set [1], the CC50 at 72 h came to 1560 ± 600 nM. In data set [2], the IC50 is 4200 ± 650 nM and the “Selectivity Index HepG2/W2” value turned out to be 0.37. Moreover, in data set [4], the IC50 was determined as 1200 ± 200 nM and the “Selectivity Index HepG2/3D7” value is 1.30.

The compound `c1ccc2c(c1)nc(-c1ccc(CNCCCN3CCN(CCCNCc4ccc(-c5nc6ccccc6n6cccc56)cc4)CC3)cc1)c1cccn12` [1c, Bis{N-[4-(pyrrolo[1,2-a]quinoxalin-4-yl)benzyl]-3-aminopropyl}piperazine] had a CC50 at 72 h in data set [1] of 1250 ± 300 nM. Besides, in data set [2], the IC50 is 3400 ± 740 nM and the “Selectivity Index HepG2/W2” value is 0.37. Also, in data set [3], the IC50 worked out at 1140 ± 200 nM. Besides, in data set [4], the IC50 was 800 ± 120 nM and the “Selectivity Index HepG2/3D7” value worked out at 1.56.

In turn, `COc1ccc2c(c1)nc(-c1ccc(CNCCCN(C)CCCNCc3ccc(-c4nc5cc(OC)ccc5n5cccc45)cc3)cc1)c1cccn12` [1d, Bis{N-[4–(7-methoxypyrrolo[1,2-a]quinoxalin-4-yl)benzyl]-3-aminopropyl}methylamine] yielded a CC50 at 72 h in data set [1] of 2570 ± 700 nM. Besides, in data set [2], the IC50 came to 340 ± 40 nM and the “Selectivity Index HepG2/W2” value came to 7.56. In addition, the IC50 in data set [3] was determined as 3890 ± 300 nM. For the same compound, in data set [4], the IC50 is 4140 ± 30 nM and the “Selectivity Index HepG2/3D7” value is recorded as 0.62.

In data set [1], `COc1ccc2nc(-c3ccc(CNCCCN(C)CCCNCc4ccc(-c5nc6ccc(OC)cc6n6cccc56)cc4)cc3)c3cccn3c2c1` [1f, Bis{N-[4–(8-methoxypyrrolo[1,2-a]quinoxalin-4-yl)benzyl]-3-aminopropyl}methylamine] had a CC50 at 72 h of 3380 ± 900 nM. In addition, in data set [2], the IC50 is 130 ± 10 nM and the “Selectivity Index HepG2/W2” value is 26. In data set [3], this compound had an IC50 of 4250 ± 200 nM. In addition, in data set [4], the IC50 amounted to 5850 ± 70 nM and the “Selectivity Index HepG2/3D7” value is recorded as 0.58.

Turning to `COc1ccc2nc(-c3ccc(CNCCCN4CCN(CCCNCc5ccc(-c6nc7ccc(OC)cc7n7cccc67)cc5)CC4)cc3)c3cccn3c2c1` [1g, Bis{N-[4–(8-methoxypyrrolo[1,2-a]quinoxalin-4-yl)benzyl]-3-aminopropyl}piperazine], in data set [1], the CC50 at 72 h amounted to 2140 ± 1400 nM. For the same compound, the values for the IC50 in data set [2], in data set [3] and in data set [4] were 360 ± 40 nM, 1070 ± 100 nM and 2220 ± 250 nM, respectively. For the same compound, in data set [2], the “Selectivity Index HepG2/W2” value was determined as 5.94. For the same compound, the “Selectivity Index HepG2/3D7” value in data set [4] was 0.96.

`COc1cccc2nc(-c3ccc(CNCCCN(C)CCCNCc4ccc(-c5nc6cccc(OC)c6n6cccc56)cc4)cc3)c3cccn3c12` [1h, Bis{N-[4–(9-methoxypyrrolo[1,2-a]quinoxalin-4-yl)benzyl]-3-aminopropyl}methylamine] returned a half-maximal cytotoxic concentration (CC50) at 72 h in data set [1] of 2440 ± 400 nM. In addition, in data set [2], the IC50 came to 440 ± 110 nM and the “Selectivity Index HepG2/W2” value came to 5.54. The same compound registered an IC50 in data set [3] of 2070 ± 20 nM. Besides, in data set [4], the IC50 came out at 250 ± 40 nM and the “Selectivity Index HepG2/3D7” value was 9.76.

On to `CCOc1ccn2c1c(-c1ccc(CNCCCN(C)CCCNCc3ccc(-c4nc5ccccc5n5ccc(OCC)c45)cc3)cc1)nc1ccccc12` [1j, Bis{N-[4–(3-ethoxypyrrolo[1,2-a]quinoxalin-4-yl)benzyl]-3-aminopropyl}methylamine], for which it took 1950 ± 300 nM to reach half-maximal cytotoxicity in data set [1] (CC50 at 72 h). Besides, in data set [2], the IC50 stood at 490 ± 160 nM and the “Selectivity Index HepG2/W2” value turned out to be 3.98. This compound returned an IC50 in data set [3] of 4260 ± 100 nM. In addition, in data set [4], the IC50 was found to be 260 ± 30 nM and the “Selectivity Index HepG2/3D7” value is on record as 7.50.

In turn, `CCOc1ccn2c1c(-c1ccc(CNCCCN3CCN(CCCNCc4ccc(-c5nc6ccccc6n6ccc(OCC)c56)cc4)CC3)cc1)nc1ccccc12` [1k, Bis{N-[4–(3-ethoxypyrrolo[1,2-a]quinoxalin-4-yl)benzyl]-3-aminopropyl}piperazine] showed a CC50 at 72 h in data set [1] of 1480 ± 500 nM. In addition, in data set [2], the IC50 stood at 90 ± 10 nM and the “Selectivity Index HepG2/W2” value was 16.44. In addition, the IC50 in data set [3] is ≥ 10000 nM. For the same compound, in data set [4], the IC50 came out at 190 ± 10 nM and the “Selectivity Index HepG2/3D7” value is listed as 7.79.

On to `c1ccc(-c2cc3c(-c4ccc(CNCCCN5CCN(CCCNCc6ccc(-c7nc8ccccc8n8cc(-c9ccccc9)cc78)cc6)CC5)cc4)nc4ccccc4n3c2)cc1` [1l, Bis{N-[4–(2-phenylpyrrolo[1,2-a]quinoxalin-4-yl)benzyl]-3-aminopropyl}piperazine], for which the IC50 in data set [2] came to 1390 ± 130 nM; in data set [4] it was 8960 ± 690 nM.

The compound `CN(CCCNCc1cccc(-c2nc3ccccc3n3cccc23)c1)CCCNCc1cccc(-c2nc3ccccc3n3cccc23)c1` [1m, Bis{N-[3-(pyrrolo[1,2-a]quinoxalin-4-yl)benzyl]-3-aminopropyl}methylamine] gave a 50% cytotoxic concentration (CC50) at 72 h in data set [1] of 1940 ± 1000 nM. In data set [2], the IC50 was determined as 120 ± 10 nM and the “Selectivity Index HepG2/W2” value is 16.17. In data set [3], this compound registered an IC50 of 2800 ± 100 nM. Further, in data set [4], the IC50 is 1070 ± 160 nM and the “Selectivity Index HepG2/3D7” value is reported as 1.81.

In data set [1], `c1cc(CNCCCN2CCN(CCCNCc3cccc(-c4nc5ccccc5n5cccc45)c3)CC2)cc(-c2nc3ccccc3n3cccc23)c1` [1n, Bis{N-[3-(pyrrolo[1,2-a]quinoxalin-4-yl)benzyl]-3-aminopropyl}piperazine] had a CC50 at 72 h of 2030 ± 1200 nM. Moreover, in data set [2], the IC50 came to 50 ± 10 nM and the “Selectivity Index HepG2/W2” value turned out to be 40.6. In data set [3], this compound showed an IC50 of 3710 ± 400 nM. Also, in data set [4], the IC50 was found to be 370 ± 40 nM and the “Selectivity Index HepG2/3D7” value came out at 5.49.

Take `c1ccc2c(c1)cc1c(-c3ccc(CNCCCN4CCN(CCCNCc5ccc(-c6nc7ccccc7n7c6cc6ccccc67)cc5)CC4)cc3)nc3ccccc3n12` [1q, Bis{N-[4-(indolo[1,2-a]quinoxalin-6-yl)benzyl]-3-aminopropyl}piperazine]: the CC50 at 72 h in data set [1] was determined as 1560 ± 700 nM. Moreover, the IC50 in data set [3] is 570 ± 100 nM; in data set [4], 1000 ± 50 nM.

As for `c1ccc(-c2nc3ccccc3n3cc(CNCCCN4CCN(CCCNCc5cc6c(-c7ccccc7)nc7ccccc7n6c5)CC4)cc23)cc1` [1r, Bis{N-[(4-phenylpyrrolo[1,2-a]quinoxalin-2-yl)methyl]-3-aminopropyl}piperazine], the IC50 is 750 ± 100 nM in data set [2] and 7220 ± 770 nM in data set [4].

On to `C[C@@H]1[C@H](O)[C@@H](C)/C=C/C=C/C=C/C=C/C=C/C=C/C=C/[C@H](O[C@@H]2O[C@H](C)[C@@H](O)[C@H](N)[C@@H]2O)C[C@@H]2O[C@](O)(C[C@@H](O)C[C@@H](O)[C@H](O)CC[C@@H](O)C[C@@H](O)CC(=O)O[C@H]1C)C[C@H](O)[C@H]2C(=O)O` [Amphotericin B, reference compound], for which half-maximal inhibition in data set [3] (IC50) was put at 100 ± 40 nM.
